{"source": "patent US5059679A", "about": "“Method of selectively sulfating peptides” (Shin-Etsu CHemical Co., Ltd., priority 1988, dated 1991)", "key": {"[1]": {"experiment": "Activity compared with swine CCK-33 (test not specified)", "details": "conclusion drawn through CCK-8", "protocol": "(§1) Bolus injections of 1.0, 3.125, 6.25, 12.5, 25, 50, 100 and 200 picomoles per kg body weight of the synthetic hCCK-33 and CCK-8 were given through a femoral vein catheter each at an interval of 60 minutes. […] The increasing effect could be noted even with the lowest dose of 3.125 picomoles/kg and the highest effect was obtained with the dose of 200 picomoles/kg. The activity of the synthetic hCCK-33 was 92% of that of the synthetic CCK-8 on the molar basis in respect of the effects on the blood flow in the pancreas capillary vessel and the protein release from pancreas. […] Since the ratio of the activity of the unsulfated hCCK-33 to the activity of CCK-8, taken as unity on the molar basis, was 0.074 in the aforementioned assay with dogs, it was concluded that an important role is played by the sulfated sites in the molecules having influences on the in vivo activity of CCKs."}, "[2]": {"tested_on": "blood flow in the pancreas capillary vessel", "experiment": "Bioassay in anesthetized dogs: blood flow in the pancreas capillary vessel (laser-Doppler perfusion monitor)", "assay_type": "in vivo, mongrel dogs", "protocol": "The synthetic hCCK-33 was concurrently subjected to the bioassay with synthetic hCCK-8 to determine the activity. The bioassay was carried out by measuring the blood flow in the pancreas capillary vessel and the protein release from pancreas using a group of four mongrel dogs anesthesized with pentobarbital. The blood flow in the pancreas capillary vessel was measured using a laser-Doppler perfusion monitor and the protein concentration in the pancreas was determined according to the method of O. H. Lowry, N. J. Rosebrough, A. L. Farr and R. J. Randall, J. Biol. Chem. 193, 265 (1951). Bolus injections of 1.0, 3.125, 6.25, 12.5, 25, 50, 100 and 200 picomoles per kg body weight of the synthetic hCCK-33 and CCK-8 were given through a femoral vein catheter each at an interval of 60 minutes. […] The increasing effect could be noted even with the lowest dose of 3.125 picomoles/kg and the highest effect was obtained with the dose of 200 picomoles/kg. […] The color intensity by the ninhydrin reaction was determined using a Shimadzu Dual Wavelength TLC Scanner Model CS-900. […] The blood flow in pancreas capillary vessel was monitored using a laser-Doppler perfusion monitor (Model LD 5000 manufactured by Seattle Model Pacific Co., Wash., U.S.A.)."}, "excised gastric tissues": {"tested_on": "excised gastric tissues", "experiment": "Stimulation of pepsinogen secretion from excised gastric tissues of guinea pigs", "assay_type": "cell-based"}, "[3]": {"tested_on": "gastric juice, pepsin release and pancreas secretion", "experiment": "Gastric juice, pepsin release and pancreas secretion in living rats", "assay_type": "in vivo", "details": "living samples of rats"}, "[4]": {"tested_on": "protein release from pancreas", "experiment": "Bioassay in anesthetized dogs: protein release from pancreas (Lowry method)", "assay_type": "in vivo, mongrel dogs", "protocol": "as §1, with “The synthetic hCCK-33 was concurrently subjected to the bioassay with synthetic hCCK-8 to determine the activity. The bioassay was carried out by measuring the blood flow in the pancreas capillary vessel and the protein release from pancreas using a group of four mongrel dogs anesthesized with pentobarbital. The blood flow in the pancreas capillary vessel was measured using a laser-Doppler perfusion monitor and the protein concentration in the pancreas was determined according to the method of O. H. Lowry, N. J. Rosebrough, A. L. Farr and R. J. Randall, J. Biol. Chem. 193, 265 (1951). Bolus” for “Bolus”, “CCKs. FIG. 6 illustrates the increase in the protein release from pancreas of an anesthetized dog in response to these 3 kinds of CCK-peptides.” for “CCKs.”"}, "[5]": {"details": "bolus injection through femoral vein catheter, 1.0-200 picomoles per kg"}, "[6]": {"details": "bolus injections 1.0-200 picomoles per kg"}}, "note": "Non-standard residues stand in square brackets, D forms with d. Residues, ends and D or L forms follow the SMILES beside them. sY = N[C@@H](Cc1ccc(OS(=O)(=O)O)cc1)C(=O)O", "data": [{"molecule": "CC[C@H](C)[C@H](NC(=O)[C@H](CCCNC(=N)N)NC(=O)[C@H](Cc1c[nH]cn1)NC(=O)[C@H](CO)NC(=O)[C@@H]1CCCN1C(=O)[C@H](CC(=O)O)NC(=O)[C@H](CC(C)C)NC(=O)[C@H](CC(N)=O)NC(=O)[C@H](CCC(N)=O)NC(=O)[C@H](CC(C)C)NC(=O)[C@H](CC(N)=O)NC(=O)[C@H](CCCCN)NC(=O)[C@@H](NC(=O)[C@@H](NC(=O)[C@H](CO)NC(=O)[C@H](CCSC)NC(=O)[C@H](CCCNC(=N)N)NC(=O)CNC(=O)[C@H](CO)NC(=O)[C@@H]1CCCN1C(=O)[C@H](C)NC(=O)[C@@H](N)CCCCN)[C@@H](C)CC)C(C)C)C(=O)N[C@@H](CO)C(=O)N[C@@H](CC(=O)O)C(=O)N[C@@H](CCCNC(=N)N)C(=O)N[C@@H](CC(=O)O)C(=O)N[C@@H](Cc1ccc(OS(=O)(=O)O)cc1)C(=O)N[C@@H](CCSC)C(=O)NCC(=O)N[C@@H](Cc1c[nH]c2ccccc12)C(=O)N[C@@H](CCSC)C(=O)N[C@@H](CC(=O)O)C(=O)N[C@@H](Cc1ccccc1)C(N)=O", "note": "[synthetic hCCK-33] (H-KAPSGRMSIVKNLQNLDPSHRISDRD[sY]MGWMDF-NH2)", "values": [{"measurement": "activity compared with natural swine CCK-33", "setting": "[1]", "result": "comparable with or even higher than"}, {"measurement": "activity relative to synthetic CCK-8 on the molar basis, blood flow in the pancreas capillary vessel", "setting": "[2]; [5]", "result": 92, "unit": "%"}, {"measurement": "pancreas blood flow, dose dependence", "setting": "[2]; [6]", "result": "increased in parallel with the dose"}, {"measurement": "activity relative to CCK-8 on the molar basis, stimulation of pepsinogen secretion", "setting": "excised gastric tissues", "result": "about the same as the CCK-8"}, {"measurement": "activity relative to CCK-8 on the molar basis, gastric juice, pepsin release and pancreas secretion", "setting": "[3]", "result": "about two to three times more active than the CCK-8"}, {"measurement": "dose giving the highest effect", "setting": "[4]; bolus injection", "result": 200, "unit": "picomoles/kg"}, {"measurement": "lowest dose at which the increasing effect could be noted", "setting": "[4]; bolus injection", "result": 3.125, "unit": "picomoles/kg"}, {"measurement": "activity relative to synthetic CCK-8 on the molar basis, protein release from pancreas", "setting": "[4]; [5]", "result": 92, "unit": "%"}, {"measurement": "protein release from pancreas, dose dependence", "setting": "[4]; [6]", "result": "increased in parallel with the dose"}]}]}
